The test system of series [1] is tomato fruitworm (Helicoverpa zea). The series is described as follows: Field efficacy study, weekly foliar sprays on tomato. Type of series: in vivo. The source says: ‘Roma’ tomato transplants were planted in the field on June 10. Each plot was one row (5 ft centers) by 20 feet (=0.0022957 acre). Plots were separated within rows by at least 6 feet of unplanted ground and across rows by 24 feet. A single row of sweet corn (‘Silver Queen’) was planted mid-way between rows. Weeds are allowed to grow in the ground between the tomato and sweet corn rows, but were kept mowed. Weeds were controlled within tomato rows by a single application of Sencor 75 DF applied as a directed spray at the rate of 0.5 lb a.i./acre on June 20. Foliar applications of Dithane M45 at 1.5 lb a.i./acre were made every 5 days beginning July 1 and continuing through harvest for control of foliar diseases. In addition, calcium nitrate at 4 lb/acre was applied on July 10, 17, 24 and 31 for control of blossom-end rot. All insecticide treatments were applied as foliar sprays on July 23, 30, August 6, and 13. Applications were made using a CO2-powered, backpack sprayer calibrated to deliver 55 gallons of spray per acre at 42 psi. […]
The experimental treatments were replicated 4 times in a randomized complete block experimental design. The incidence of fruitworm damage to the fruit was determined in each plot on August 11, when the first fruit reached market maturity, and again on August 16. […]

For series [2] the following is noted: soluble in 1 liter of water; cited from earlier work.
The test system of series [3] is eye of a rabbit. Kind of series: Neat emamectin benzoate, acute ocular irritation study in rabbits. It is filed as in vivo, albino rabbits (New Zealand white). The protocol:
Three male and three female albino rabbits (New Zealand white) 25 to 26 weeks of age and weighing 3.23 to 3.66 kg was used in this study. The test compound was ground into a fine powder and a volume of 0.1 cc (approximately 28 mg) was placed in the conjunctival sac of the left eye of each rabbit. Immediately after administration, the eyelids of the treated eye were held together for one second to prevent loss of material and released. The right eye was used as an untreated control.
Ocular examinations were made recorded at 1, 24, 48 and 72 hours post-instillation in all rabbits and were scored by the Draize Method (J. Pharmacol. Exp. Therap. 82:377-390 (1944)). Because of severe ocular reactions, three rabbits were euthanized following the 72-hour reading. Scores were recorded for the three remaining rabbits once daily through 14 days post-instillation except on weekends.

Entries after “also recorded” stand apart in the source; their conditions may differ.

`CC1(C)[C@H](C(=O)O[C@H](C#N)c2cccc(Oc3ccccc3)c2)[C@@H]1/C=C(\Cl)C(F)(F)F` (racemic) [lambda-cyhalothrin]: the “overall mean percentage of damaged fruit” value in series [1] (foliar) is listed as 1.0%.
For the compound `COP(=O)(NC(C)=O)SC` (stereo not drawn) [acephate], the “amount soluble in water” value in series [2] is listed as 650 g.
With `CC(C)[C@H](C(=O)O[C@H](C#N)c1cccc(Oc2ccccc2)c1)c1ccc(Cl)cc1` [esfenvalerate], in series [1] (tomato, Asana XL 0.66 EC at 0.036 lb active ingredient per acre, applied weekly, untreated control 18.5%), the “overall mean percentage of damaged fruit” value was 0.0%.
Regarding “benzoate salt of 4″-deoxy-4″-epi-methylamino avermectin B1a/B1b [emamectin benzoate]”, the ocular irritation rating entry in series [3] (0.1 cc (approximately 28 mg) fine powder in conjunctival sac, six rabbits, listed as neat emamectin benzoate) is “severely irritating; also recorded: severe, irreversible eye irritant”. Further, in series [3] (approximately 28 mg in conjunctival sac), the “ocular reactions in the three rabbits euthanized early, through 72 hours” value is reported as “chemosis became severe”. For the same compound, the “ocular reactions at one hour” value in series [3] (approximately 28 mg in conjunctival sac, six rabbits, listed as neat emamectin benzoate) was “the eyes of four rabbits had congestion of the iris; also recorded: corneal anesthesia and conjunctival irritation; also recorded: moderate redness, slight or moderate chemosis and severe colorless discharge”. In addition, the “ocular reactions at 24 hours” value in series [3] (approximately 28 mg in conjunctival sac, listed as neat emamectin benzoate) is on record as “an additional rabbit had congestion of the iris; also recorded: very slight corneal opacity covering less than ¼ of the corneal surface; also recorded: corneal anesthesia was still present, redness was severe, chemosis was never more than moderate”. Besides, the body weight loss result in series [3] (rabbits euthanized early) is “less than 7%”. For the same compound, in series [3] (two of the three remaining rabbits), the “corneal anesthesia lasted through” value stood at 72 h.
